According to ChEMBL document CHEMBL1955793, “Integrated structure-based activity prediction model of benzothiadiazines on various genotypes of HCV NS5b polymerase (1a, 1b and 4) and its application in the discovery of new derivatives” (Bioorg Med Chem, 2012):
pEC50, pIC50: −log10 of the molar value. Active and inactive are the calls of the source. The rule behind the calls is not given here.

Legend:
[1] = Inhibition of Hepatitis C virus genotype 1a NS5B polymerase; design: species or system Hepatitis C virus subtype 1a
Hepatitis C virus [2] = test: Inhibition of Hepatitis C virus genotype 1b NS5B polymerase; design: species or system Hepatitis C virus subtype 1b
[3] = system: Hepatitis C virus genotype 4; test: Inhibition of Hepatitis C virus genotype 4 NS5B polymerase at 10 uM
[4] = Cytotoxicity against human HuH5.2 cells after 1.5 hrs by MTS assay; type: cell-based, Huh-5-2
Hepatitis C virus [5] = test: Antiviral activity against Hepatitis C virus genotype 1b 1389 infected in human HuH5.2 cells assessed as inhibition of viral replication after 72 hrs by luciferase reporter gene assay; type: functional, organism-based, Hepacivirus hominis; details: genotype 1b 1389, Huh-5-2, 72 h

Row | SMILES | pIC50 [1] | pIC50 (Hepatitis C virus [2]) | inhibition [3] | CC50 at 1.5 h [4] | pEC50 (Hepatitis C virus [5])
1 | CC(C)CNn1c(=O)c(C2=NS(=O)(=O)c3ccccc3N2)c(O)c2ccccc21 | 6.03 | 7.00 |  |  | 
2 | CC(C)Nn1c(=O)c(C2=NS(=O)(=O)c3ccccc3N2)c(O)c2ccccc21 | 5.20 | 6.19 |  |  | 
3 | CCCCn1cc(C2=NS(=O)(=O)c3ccccc3N2)c2cc(Br)ccc21 |  |  | inactive | 37.2 µM | 5.00
4 | O=c1c(C2=NS(=O)(=O)c3ccccc3N2)c(O)c2ccccc2n1NCc1ccc(Br)cc1 | 4.98 | 5.33 |  |  | 
5 | O=c1c(C2=NS(=O)(=O)c3ccccc3N2)c(O)c2ccccc2n1NCC1CCCCC1 | 5.60 | 6.82 |  |  | 
6 | CCCCn1cc(C2=NS(=O)(=O)c3cc(Br)cnc3N2)c2ccccc21 |  |  | inactive | 21.9 µM | 5.23
7 | CC(C)(C)CCNn1c(=O)c(C2=NS(=O)(=O)c3ccccc3N2)c(O)c2ccccc21 | 6.39 | 6.87 |  |  | 
8 | O=S1(=O)N=C(c2cn(Cc3ccccc3)c3ccccc23)Nc2ccccc21 |  |  | inactive | > 50 µM | 5.73
9 | C=CCn1cc(C2=NS(=O)(=O)c3cc(Br)cnc3N2)c2ccccc21 |  |  | inactive | > 50 µM | 4.60
10 | O=c1c(C2=NS(=O)(=O)c3ccccc3N2)c(O)c2ccccc2n1NCc1ccc(Cl)s1 | 5.32 | 5.84 |  |  | 
11 | Fc1ccccc1-c1nc2ccn(Cc3ccc(-c4ccc(C(F)(F)F)cc4C(F)(F)F)nn3)cc-2n1 [TEGOBUVIR] |  |  |  |  | 9.15
12 | CCCC(CCC)Nn1c(=O)c(C2=NS(=O)(=O)c3ccccc3N2)c(O)c2ccccc21 | 5.65 | 5.74 |  |  | 
13 | O=c1c(C2=NS(=O)(=O)c3ccccc3N2)c(O)c2ccccc2n1NC1CCCC1 | 6.13 | 6.82 |  |  | 
14 | Cc1ccsc1CNn1c(=O)c(C2=NS(=O)(=O)c3ccccc3N2)c(O)c2ccccc21 | 4.82 | 5.92 |  |  | 
15 | Cc1ccccc1CNn1c(=O)c(C2=NS(=O)(=O)c3ccccc3N2)c(O)c2ccccc21 | 5.21 | 6.32 |  |  | 
16 | O=c1c(C2=NS(=O)(=O)c3ccccc3N2)c(O)c2ccccc2n1NCc1ccccc1Br | 5.17 | 6.33 |  |  | 
17 | CC(Nn1c(=O)c(C2=NS(=O)(=O)c3ccccc3N2)c(O)c2ccccc21)c1ccccc1 (stereo unspecified) | 4.78 | 5.83 |  |  | 
18 | CC(C)CCn1cc(C2=NS(=O)(=O)c3cc(Br)cnc3N2)c2ccccc21 |  |  | inactive | > 50 µM | 5.15
19 | O=c1c(C2=NS(=O)(=O)c3ccccc3N2)c(O)c2ccccc2n1NC1CCC1 | 6.56 | 6.97 |  |  | 
20 | CCCC(CC)Nn1c(=O)c(C2=NS(=O)(=O)c3ccccc3N2)c(O)c2ccccc21 (stereo unspecified) | 5.72 | 6.41 |  |  | 
21 | CCCCNn1c(=O)c(C2=NS(=O)(=O)c3ccccc3N2)c(O)c2ccccc21 | 6.02 | 6.79 |  |  | 
22 | O=S1(=O)N=C(c2cn(Cc3ccccc3)c3ccc(Br)cc23)Nc2ccccc21 |  |  | inactive |  | 
23 | C=CCn1cc(C2=NS(=O)(=O)c3ccccc3N2)c2ccccc21 |  |  | inactive | > 50 µM | 
24 | CCCCn1cc(C2=NS(=O)(=O)c3cc(NS(C)(=O)=O)ccc3N2)c2cc(Br)ccc21 |  |  | 60% | 49.2 µM | 5.11
25 | O=c1c(C2=NS(=O)(=O)c3ccccc3N2)c(O)c2ccccc2n1NCc1ccoc1 | 5.81 | 6.88 |  |  | 
26 | O=c1c(C2=NS(=O)(=O)c3ccccc3N2)c(O)c2ccccc2n1NCc1ccccc1 | 5.29 | 6.89 |  |  | 
